Experimental data reported in ChEMBL document CHEMBL2074301, “Effect of endotoxin on doxorubicin transport across blood-brain barrier and P-glycoprotein function in mice” (Eur J Pharmacol, 2002).

Target: ATP-dependent translocase ABCB1 (Mus musculus, UniProt P21447)
Assay: TP_TRANSPORTER: Western in vivo, brain of ddY mouse
Format: functional, organism-based

Chain of ATP-dependent translocase ABCB1 (P21447 whole entry): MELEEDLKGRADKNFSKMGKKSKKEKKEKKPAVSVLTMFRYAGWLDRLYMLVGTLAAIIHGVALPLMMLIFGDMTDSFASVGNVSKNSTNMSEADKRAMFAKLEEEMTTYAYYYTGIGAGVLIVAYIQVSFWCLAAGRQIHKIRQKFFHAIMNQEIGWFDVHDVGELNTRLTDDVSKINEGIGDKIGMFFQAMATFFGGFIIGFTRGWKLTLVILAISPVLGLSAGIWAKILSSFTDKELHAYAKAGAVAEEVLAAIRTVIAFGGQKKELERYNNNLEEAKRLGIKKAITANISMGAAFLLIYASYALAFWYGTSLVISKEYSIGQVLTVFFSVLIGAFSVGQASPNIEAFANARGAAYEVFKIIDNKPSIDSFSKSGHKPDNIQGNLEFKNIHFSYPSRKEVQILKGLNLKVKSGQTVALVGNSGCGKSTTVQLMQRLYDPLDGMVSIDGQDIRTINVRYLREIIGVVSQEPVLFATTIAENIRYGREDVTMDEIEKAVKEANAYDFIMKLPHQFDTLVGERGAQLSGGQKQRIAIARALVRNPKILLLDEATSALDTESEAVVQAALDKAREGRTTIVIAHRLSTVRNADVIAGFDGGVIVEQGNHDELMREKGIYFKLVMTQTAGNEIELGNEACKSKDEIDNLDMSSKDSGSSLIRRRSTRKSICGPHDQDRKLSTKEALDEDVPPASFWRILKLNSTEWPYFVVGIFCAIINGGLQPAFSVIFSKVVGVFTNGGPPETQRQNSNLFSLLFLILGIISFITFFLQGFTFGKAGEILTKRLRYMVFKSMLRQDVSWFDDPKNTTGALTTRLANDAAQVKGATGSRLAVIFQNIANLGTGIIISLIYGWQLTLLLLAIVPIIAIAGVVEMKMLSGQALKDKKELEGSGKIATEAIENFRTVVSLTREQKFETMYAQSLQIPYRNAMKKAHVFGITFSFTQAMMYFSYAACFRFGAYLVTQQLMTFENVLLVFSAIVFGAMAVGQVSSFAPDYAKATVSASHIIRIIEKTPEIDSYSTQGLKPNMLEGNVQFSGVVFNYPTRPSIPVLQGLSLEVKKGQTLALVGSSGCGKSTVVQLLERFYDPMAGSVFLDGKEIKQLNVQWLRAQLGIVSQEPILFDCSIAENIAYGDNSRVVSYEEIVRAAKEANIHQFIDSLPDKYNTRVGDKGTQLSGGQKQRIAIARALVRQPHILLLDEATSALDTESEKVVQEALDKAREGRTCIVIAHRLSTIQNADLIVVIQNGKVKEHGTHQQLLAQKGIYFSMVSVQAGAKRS

CCCCCCCCCCCCCC(=O)OC(CCCCCCCCCCC)CC(=O)OC1C(NC(=O)CC(CCCCCCCCCCC)OC(=O)CCCCCCCCCCC)C(OC2CC(OC(=O)CC(O)CCCCCCCCCCC)C(NC(=O)CC(O)CCCCCCCCCCC)C(O)O2)OC(CO)C1OP(=O)(O)O (stereo unspecified)
Activity: inducer [Decrease]
